Reference: the CheMixHub viscosity set

Experiment: xn = mol fraction of the nth substance listed

CC(Cl)(Cl)Cl + C1CCCCC1
303.15 K, 101 kPa
Conditions | viscosity [mPa·s]
x1 = 0.157 | 0.7897
x1 = 0.2218 | 0.776
x1 = 0.2876 | 0.7624
x1 = 0.3722 | 0.7462
x1 = 0.4768 | 0.7297
x1 = 0.543 | 0.7219
x1 = 0.679 | 0.713
x1 = 0.7525 | 0.7123
x1 = 0.8597 | 0.716
x1 = 0.9403 | 0.7201

CC(Cl)(Cl)Cl + CCCCCC
303.15 K, 101 kPa
Conditions | viscosity [mPa·s]
x1 = 0.1033 | 0.3166
x1 = 0.2726 | 0.3777
x1 = 0.3375 | 0.4016
x1 = 0.4011 | 0.4253
x1 = 0.5547 | 0.4864
x1 = 0.5981 | 0.5047
x1 = 0.6578 | 0.5318
x1 = 0.7595 | 0.582
x1 = 0.8388 | 0.6246
x1 = 0.9378 | 0.6833

CC(Cl)(Cl)Cl + Cc1ccc(C)cc1
303.15 K, 101 kPa
Conditions | viscosity [mPa·s]
x1 = 0.1341 | 0.6079
x1 = 0.2166 | 0.632
x1 = 0.3072 | 0.6566
x1 = 0.4291 | 0.6846
x1 = 0.5112 | 0.6988
x1 = 0.6202 | 0.7113
x1 = 0.69 | 0.7164
x1 = 0.7824 | 0.7206
x1 = 0.8403 | 0.7216
x1 = 0.9044 | 0.7226

O=C([O-])C(F)(F)F.[Cs+] + O
viscosity [mPa·s], 101 kPa
Conditions | 298.15 K | 303.15 K | 308.15 K | 313.15 K
x1 = 0.00102 | 0.897 | 0.805 | 0.727 | 0.663
x1 = 0.00146 | 0.899 | 0.808 | 0.729 | 0.666
x1 = 0.002202 | 0.904 | 0.812 | 0.734 | 0.67
x1 = 0.00303 | 0.909 | 0.817 | 0.739 | 0.675
x1 = 0.003649 | 0.913 | 0.821 | 0.743 | 0.679
x1 = 0.004385 | 0.918 | 0.826 | 0.747 | 0.684
x1 = 0.005137 | 0.923 | 0.83 | 0.752 | 0.689
x1 = 0.005844 | 0.928 | 0.836 | 0.757 | 0.693
x1 = 0.006694 | 0.933 | 0.841 | 0.762 | 0.698
x1 = 0.007272 | 0.937 | 0.845 | 0.767 | 0.702
x1 = 0.008058 | 0.943 | 0.85 | 0.772 | 0.707
x1 = 0.008713 | 0.947 | 0.855 | 0.777 | 0.711
x1 = 0.009254 | 0.95 | 0.858 | 0.78 | 0.716
x1 = 0.01011 | 0.956 | 0.864 | 0.784 | 0.721

O=CO + CN(C)C=O
303.15 K, 101 kPa
Conditions | viscosity [mPa·s]
x1 = 0.1513 | 0.848
x1 = 0.2841 | 0.986
x1 = 0.4038 | 1.16
x1 = 0.6144 | 1.45
x1 = 0.7869 | 1.58
x1 = 0.8657 | 1.58

O=CO + CC(C)=O
viscosity [mPa·s], 101 kPa
Conditions | x1 = 0.1014 | x1 = 0.2068 | x1 = 0.299 | x1 = 0.4009 | x1 = 0.4945 | x1 = 0.6083 | x1 = 0.6998 | x1 = 0.8014 | x1 = 0.8947
298.15 K | 0.3575 | 0.4002 | 0.4482 | 0.5192 | 0.5972 | 0.7312 | 0.8622 | 1.053 | 1.287
308.15 K | 0.3251 | 0.3639 | 0.4063 | 0.4659 | 0.5315 | 0.642 | 0.7455 | 0.906 | 1.079
318.15 K | 0.2954 | 0.3287 | 0.3657 | 0.4163 | 0.4726 | 0.5609 | 0.6457 | 0.7719 | 0.9139

Cc1ccc(O)cc1C + CC12CCC(CC1=O)C2(C)C
101.33 kPa, x1 = 0.7
Conditions | viscosity [mPa·s]
293.15 K | 25.37
298.15 K | 18.86
303.15 K | 14.61
308.15 K | 11.42
313.15 K | 9.026
318.15 K | 7.494
323.15 K | 6.189

CCCCCBr + c1ccccc1
308.15 K, 101 kPa
Conditions | viscosity [mPa·s]
x2 = 0.0961 | 0.6279
x2 = 0.2061 | 0.6028
x2 = 0.2972 | 0.5854
x2 = 0.3978 | 0.5636
x2 = 0.4978 | 0.5452
x2 = 0.5868 | 0.5316
x2 = 0.7022 | 0.5149
x2 = 0.8752 | 0.5028
x2 = 0.9275 | 0.503

CC(Cl)(Cl)Cl + CCCCCOC(C)=O
303.15 K, 101.3 kPa
Conditions | viscosity [mPa·s]
x2 = 0.104 | 0.7366
x2 = 0.1989 | 0.7441
x2 = 0.2995 | 0.7518
x2 = 0.4018 | 0.7568
x2 = 0.5014 | 0.7653
x2 = 0.5996 | 0.7667
x2 = 0.6961 | 0.7663
x2 = 0.7935 | 0.7658
x2 = 0.8993 | 0.7589

CC(Cl)(Cl)Cl + CCC(C)=O
298.15 K, 101.33 kPa
Conditions | viscosity [mPa·s]
x1 = 0.098 | 0.4094
x1 = 0.201 | 0.438
x1 = 0.299 | 0.4678
x1 = 0.398 | 0.5001
x1 = 0.499 | 0.5361
x1 = 0.6 | 0.5757
x1 = 0.7 | 0.6196
x1 = 0.8 | 0.669
x1 = 0.9 | 0.7256

O=CO + CO
303.15 K, 101 kPa
Conditions | viscosity [mPa·s]
x1 = 0.0714 | 0.573
x1 = 0.1463 | 0.609
x1 = 0.2264 | 0.641
x1 = 0.3137 | 0.658
x1 = 0.4031 | 0.677
x1 = 0.506 | 0.691
x1 = 0.6149 | 0.75
x1 = 0.7328 | 0.867
x1 = 0.8604 | 1.062

CC(O)c1ccccc1 (configuration not stated) + c1ccccc1
293.15 K, 101.32 kPa
Conditions | viscosity [mPa·s]
x1 = 0.01616 | 0.6575
x1 = 0.05419 | 0.708
x1 = 0.09606 | 0.7832
x1 = 0.1306 | 0.85
x1 = 0.1766 | 0.9508

CC(Cl)(Cl)Cl + COCC(C)O
298.15 K, 101.33 kPa
Conditions | viscosity [mPa·s]
x1 = 0.101 | 1.508
x1 = 0.2 | 1.362
x1 = 0.3 | 1.232
x1 = 0.4 | 1.119
x1 = 0.501 | 1.021
x1 = 0.601 | 0.9385
x1 = 0.7 | 0.8715
x1 = 0.72 | 0.8596
x1 = 0.837 | 0.8044
x1 = 0.908 | 0.785

C1CCOCC1 + CCCCO
viscosity [mPa·s], 101.3 kPa
Conditions | x1 = 0.0478 | x1 = 0.0969 | x1 = 0.1984 | x1 = 0.288 | x1 = 0.3973 | x1 = 0.5005 | x1 = 0.6788 | x1 = 0.7023 | x1 = 0.8041 | x1 = 0.9024
298.15 K | 2.294 | 2.056 | 1.662 | 1.426 | 1.222 | 1.087 | 0.931 | 0.9162 | 0.8645 | 0.8316
313.15 K | 1.633 | 1.483 | 1.255 | 1.086 | 0.9459 | 0.8494 | 0.7345 | 0.7252 | 0.6832 | 0.6584
